# Measurements: paper PMC5865291, “A fast and sensitive activity assay for lytic polysaccharide monooxygenase” (Biotechnology for Biofuels, 2018)
# Molecular target: T1, NcLPMO9F (Neurospora crassa, UniProt Q1K4Q1)
# T1 construct: gene gh61-6; recombinant secreted from Pichia pastoris X-33, column purified; 23,200 g/mol
# T1 sequence (Q1K4Q1 18-231): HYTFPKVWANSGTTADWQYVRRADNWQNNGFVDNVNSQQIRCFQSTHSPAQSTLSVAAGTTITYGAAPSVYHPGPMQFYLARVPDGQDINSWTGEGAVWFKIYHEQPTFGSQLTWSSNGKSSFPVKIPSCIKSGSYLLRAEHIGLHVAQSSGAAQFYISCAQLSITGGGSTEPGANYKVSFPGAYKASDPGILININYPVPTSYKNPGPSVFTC
# Experiment: spectrophotometric peroxidase assay at […] nm (coerulignone formation)
# Format: biochemical
# Settings: H2O2 cosubstrate, standard conditions (30 °C); turnover only
compound,measurement,value
"COc1cccc(OC)c1O [2,6-dimethoxyphenol]",specific activity,The peroxidase activity was found for three different LPMOs from two different organisms
